Here are results for one compound from article PMC5773535, “Plasmodium dihydrofolate reductase is a second enzyme target for the antimalarial action of triclosan” (Scientific Reports, 2018).

SMILES strings stand for the structures.

A word on the IC50: it is the concentration at which inhibition is half-maximal. Low readings indicate higher potency, high ones lower potency.

The target of assay [1] is T1, human dihydrofolate reductase (HsDHFR) (Homo sapiens, UniProt P00374).
T1 construct: gene DHFR
T1 sequence (P00374 1-187): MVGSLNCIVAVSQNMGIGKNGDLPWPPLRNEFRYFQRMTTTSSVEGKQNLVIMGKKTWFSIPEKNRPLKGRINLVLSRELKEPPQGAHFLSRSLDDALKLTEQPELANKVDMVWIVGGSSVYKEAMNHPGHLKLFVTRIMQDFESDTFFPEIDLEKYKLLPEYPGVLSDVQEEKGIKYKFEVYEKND
The assay can be described thus: spectrophotometric DHFR assay at […] nm (NADPH/DHF consumption), purified enzyme. The format is biochemical.

Assay [2] concerns the target P. vivax dihydrofolate reductase (PvDHFR) (Plasmodium vivax, UniProt O02604). The description is as above. In kind it is biochemical.

P. vivax dihydrofolate reductase (PvDHFR), sequence (O02604 1-240): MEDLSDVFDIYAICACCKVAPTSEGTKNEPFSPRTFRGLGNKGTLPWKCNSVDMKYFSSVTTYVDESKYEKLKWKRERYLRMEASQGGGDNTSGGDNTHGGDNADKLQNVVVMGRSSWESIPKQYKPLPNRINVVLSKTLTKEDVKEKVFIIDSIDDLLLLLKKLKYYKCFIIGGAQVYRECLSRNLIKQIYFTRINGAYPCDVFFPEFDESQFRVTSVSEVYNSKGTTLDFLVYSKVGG

Turning to `Oc1cc(Cl)ccc1Oc1ccc(Cl)cc1Cl` [triclosan], the values for the IC50 in assay [1] and in assay [2] were 17.2 ± 4.9 µM and 0.775 ± 0.384 µM, respectively.
